Experimental data reported in patent publication US9561186B2, “Method for improving the bioavailability of low aqueous solubility drugs” (PHARMATHEN S.A., priority 2012, dated 2017).

Test: Solubility of Tadalafil in 2-pyrrolidone
Assay type: physicochemical
Conditions: compared with ethanol as solvent
Text: Pyrroplus Manufacturing Process” as described above, overcomes several problems associated with the low solubility of Tadalafil. […] Conversely, using ethanol as solvent requires either increased amount of solvent or small quantity of Tadalafil, which both incommode the preparation of a pharmaceutical composition.

CN1CC(=O)N2[C@H](c3ccc4c(c3)OCO4)c3[nH]c4ccccc4c3C[C@@H]2C1=O [Tadalafil]
solubility when dissolved in 2-pyrrolidone: its solubility increases and reaches high values
